Measurements taken from patent publication US11420935B2, “Bicyclic compounds” (Vivace Therapeutics, Inc., priority 2019, dated 2022).

These compounds were tested on 8×TBD luciferase reporter (YAP) in HEK293T cells (assay: YAP Reporter Assay (8×TBD firefly luciferase reporter)). Conditions: Homo sapiens, HEK-293T; HEK293T cells stably transfected with 8×TBD luciferase reporter and pRLTK; 24-hr incubation; firefly luciferase activity; read-out: Firefly Luciferase IC50.
Assay type: cell-based
Procedure, shortened: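 Stably transfected HEK293T cells (8×TBD firefly luciferase plus TK-renilla) were dosed with 10-point 1:3 dilutions from 3 μM final, quadruplicates, for 24 h at 37 °C. Dual-Glo read firefly and renilla luminescence; IC50 and maximal inhibition reported separately for each.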

**Q.** C[C@H](NC(=O)c1cnc2c(Oc3ccc(C(F)(F)F)cc3)cccc2c1)c1cccc2nc[nH]c12 [Compound 104, (S)—N-(1-(1H-benzo[d]imidazol-7-yl)ethyl)-8-(4-(trifluoromethyl)phenoxy)quinoline-3-carboxamide] was tested. Which IC50 did it give?
**A.** Its IC50 is less than 0.1 µM.

**Q.** C[C@H](NC(=O)c1ccc2c(Oc3ccc(C(F)(F)F)cc3)cccc2c1)C1CN(C2CC2)C1 [Compound 136, (S)—N-(1-(1-cyclopropylazetidin-3-yl)ethyl)-5-(4-(trifluoromethyl)phenoxy)-2-naphthamide] was tested. Which IC50 did it give?
**A.** The IC50 was 1 to 3 µM.

**Q.** Which IC50 does the source give for CC(C)NC(=O)c1cc2cccc(Oc3ccc(C(F)(F)F)cc3)c2s1 [Compound 32, N-isopropyl-7-(4-(trifluoromethyl)phenoxy)benzo[b]thiophene-2-carboxamide] here?
**A.** Its IC50 is less than 0.1 µM.

**Q.** For C[C@@H](NC(=O)c1ccc2c(Oc3ccc(C(F)(F)F)cc3)cccc2c1)c1cccnc1N [Compound 79, (R)—N-(1-(2-aminopyridin-3-yl)ethyl)-5-(4-(trifluoromethyl)phenoxy)-2-naphthamide], which IC50 is on record?
**A.** The IC50 was 1 to 3 µM.

**Q.** How did the IC50 turn out when C[C@@H](NC(=O)c1ccc2c(Oc3ccc(C(F)(F)F)cc3)cccc2c1)c1nnn(C)n1 [Compound 57, (R)—N-(1-(2-methyl-2H-tetrazol-5-yl)ethyl)-5-(4-(trifluoromethyl)phenoxy)-2-naphthamide] was run?
**A.** The IC50 was 0.1 to 1 µM.

**Q.** C[C@H](NC(=O)c1ccc2c(Oc3ccc(C(F)(F)F)cc3)cccc2c1)c1nn[nH]n1 [Compound 52, (S)—N-(1-(2H-tetrazol-5-yl)ethyl)-5-(4-(trifluoromethyl)phenoxy)-2-naphthamide] was tested. Which IC50 did it give?
**A.** Its IC50 is 1 to 3 µM.
